Here are results for one substance from US5688507A, “Methods and compositions for inhibiting thrombogenesis” (Hamilton Civic Hospitals Research Development, Inc., priority 1995, dated 1997).

In one assay the test system is fibrin I (desAA fibrin). The assay can be described thus: Solid-phase binding of 125I-thrombin to fibrin-coated microtiter wells (ovalbumin-coated wells as non-specific control). The following applies: increasing concentrations, 2 h at 37° C., ovalbumin-well binding subtracted (FIG. 4). As to the method:
To examine the ability of various agents to displace thrombin from fibrin, a solid-phase system was developed wherein fibrin was immobilized on the surface of a microtiter plate well. Radiolabeled thrombin was then bound to the fibrin-coated surface, and after washing, the ability of various agents to displace the bound thrombin was evaluated. In this model, the binding of thrombin to immobilized ovalbumin serves as an index of nonspecific binding. The details of the model are as follows: after adding 100 μl of fibrinogen or ovalbumin (each at a concentration of 1 mg/ml) to the wells of microtiter plate, the plates were incubated for 18 hours at 4° C. The wells were then washed three times with 250 μl aliquots of phosphate buffered saline, pH 7.4, containing 0.1% ovalbumin and 6 mg/ml PEG 8,000 (POP buffer). Based on preliminary studies using radiolabeled fibrinogen or ovalbumin, each well bound 1.3±0.2 μg of fibrinogen, or 1.0±0.1 μg of ovalbumin. […] The reptilase completely converted the immobilized fibrinogen to fibrin I because quantitative amounts of fibrinopeptide A (2 mol fibrinopeptide A/mol of bound fibrinogen) was recovered in the supernatant buffer. […] At the end of the incubation period, the wells were washed three times and then counted to determine the concentration of thrombin bound to the fibrin-coated (+) or ovalbumin-coated (.largecircle.) wells (FIG. 4). […]

Another assay concerns fibrin. The following applies: stated without experiment; cited from earlier work.

Consider thrombin, for which the “specific binding to fibrin-coated wells” value in the assay with fibrin I (desAA fibrin) is “binds to fibrin in a saturable manner”. Further, the “native binding affinity between fibrin and thrombin in thrombus” value in the assay on fibrin is “about 5×10^-5 M^-1”.
